Data as given in ChEMBL document CHEMBL5625167, “In vitro bioevaluation and docking study of dihydrosphingosine and ethambutol analogues against sensitive and multi-drug resistant Mycobacterium tuberculosis” (Eur J Med Chem, 2023).
Values after ≈ are worked out from the molar mass of the structure shown. Values joined by “and” are separate entries in the source; they are usually repeats but may differ in a detail not shown here. Identical values can stand only once.

What was measured:
[1] = Cytotoxicity against mouse J774.A1 cells assessed as reduction in cell population incubated for 48 hrs by MTT assay; format: toxicity, cell-based
[2] = test system: Mycobacterium tuberculosis; test: Potency index, ratio of ethambutol MIC to test compound MIC for antimycobacterial activity against isoniazid, rifampicin, ethambutol and pyrazinamide sensitive Mycobacterium tuberculosis H37Rv ATCC 25618 assessed as inhibition of bacterial growth incubated for 7 days by resazurin dye based colorimetric method analysis; format: functional; conditions: time 7 day
[3] = Cytotoxicity against African green monkey Vero cells assessed as reduction in cell population incubated for 48 hrs by MTT assay; format: toxicity, cell-based; conditions: chlorocebus sabaeus
[4] = test system: Mycobacterium tuberculosis; test: Antimycobacterial activity against isoniazid, rifampicin, ethambutol and pyrazinamide sensitive Mycobacterium tuberculosis H37Rv ATCC 25618 assessed as inhibition of bacterial growth incubated for 7 days by resazurin dye based colorimetric method analysis; format: functional; conditions: H37Rv ATCC 25618, 168 h, time 7 day
Staphylococcus aureus = test: Antibacterial activity against Staphylococcus aureus ATCC 25923 incubated for 18 hrs by resazurin dye based broth microdilution method; format: functional
Klebsiella pneumoniae = test: Antibacterial activity against Klebsiella pneumoniae ATCC 13883 incubated for 18 hrs by resazurin dye based broth microdilution method; format: functional
[5] = test system: Mycolicibacterium smegmatis; test: Antimycobacterial activity against Mycobacterium smegmatis ATCC607 incubated for 24 hrs by resazurin dye based broth microdilution method; format: functional
[6] = Cytotoxicity against human HepG2 cells assessed as reduction in cell population incubated for 48 hrs by MTT assay; format: toxicity, cell-based
[7] = test system: Mycobacterium tuberculosis; test: Antimycobacterial activity against Mycobacterium tuberculosis H37Rv ATCC 25618 incubated for 7 days by resazurin dye based two-dimensional micro dilution checkerboard assay in presence of 1-((3,4,5-trimethoxybenzyl)oxy)heptadecan-2-amine; format: functional; conditions: time 7 day
[8] = test system: Mycobacterium tuberculosis; test: Antimycobacterial activity against Mycobacterium tuberculosis H37Rv ATCC 25618 incubated for 7 days by resazurin dye based two-dimensional micro dilution checkerboard assay in presence of 1-(benzyloxy)heptadecan-2-amine; format: functional; conditions: time 7 day
[9] = test system: Mycobacterium tuberculosis; test: Antimycobacterial activity against Mycobacterium tuberculosis H37Rv ATCC 25618 assessed as fractional inhibitory concentration incubated for 7 days in presence of 2-aminoheptadecan-1-ol by resazurin dye based two-dimensional micro dilution checkerboard assay; format: functional; conditions: time 7 day

Structure (SMILES) | CC50 at 48 h [1] | Ratio [2] | CC50 at 48 h [3] | MIC [4] | MIC (Staphylococcus aureus) | MIC (Klebsiella pneumoniae) | MIC [5] | CC50 at 48 h [6] | FIC [7] | FIC [8] | FIC [9]
CCCCc1ccc(CCCCCC(CO)NC(=O)OC(C)(C)C)cc1 (centres undefined) | 14.2 µM | 6 | 51.5 µM | 64 µM (≈ 23.3 µg/mL) |  |  |  |  |  |  | 
Cc1onc(-c2ccccc2)c1C(=O)N[C@@H]1C(=O)N2[C@@H]1SC(C)(C)[C@@H]2C(=O)O [OXACILLIN] |  |  |  |  | 0.25 µM (≈ 0.1 µg/mL) |  |  |  |  |  | 
CCCCCCCCCCCCCCCC(CO)NCC (centres undefined) | 22.8 µM | 23 | 27.7 µM | 16 µM (≈ 4.79 µg/mL) |  |  |  |  |  |  | 
CCCCCCCCCCCCCCCCCC(N)CO (centres undefined) | 9.65 µM | 45 | 53.2 µM | 8 µM (≈ 2.4 µg/mL) | 256 µM (≈ 76.7 µg/mL) | > 512 µM | 256 µM (≈ 76.7 µg/mL) | 200 µM |  |  | 
CCCCc1ccc(CCCCCC(N)CO)cc1 (centres undefined) | 10.7 µM | 6 | 27.8 µM | 64 µM (≈ 16.9 µg/mL) |  |  |  |  |  |  | 
CCCCCCCCCCCCCCCC(CNCC(=O)OCC)NC(=O)OC(C)(C)C (centres undefined) | 27.9 µM | 11 | 39 µM | 32 µM (≈ 14.6 µg/mL) |  |  |  |  |  |  | 
CCCCCCCCCCCCCCCCCC(CO)NCCCC (centres undefined) | 31.1 µM | 11 | 148 µM | 32 µM (≈ 11.4 µg/mL) | 512 µM (≈ 182 µg/mL) | > 512 µM | 512 µM (≈ 182 µg/mL) |  |  |  | 
CCCCCCCCCCCC(CO)NCC (centres undefined) | 10.5 µM | >5.6 | 37.3 µM | > 64 µM |  |  |  |  |  |  | 
CCCCCCCCCCCCCCCCCC(CN)NC(=O)OC(C)(C)C (centres undefined) | 30.5 µM | 23 | 17.7 µM | 16 µM (≈ 6.38 µg/mL) | 16 µM (≈ 6.38 µg/mL) | > 512 µM | 8 µM (≈ 3.19 µg/mL) | 115 µM |  |  | 
CCCCCCCCCCCCCCCC(CO)NCCCC (centres undefined) | 23.7 µM | 6 | 73.4 µM | 64 µM (≈ 21 µg/mL) |  |  |  |  |  |  | 
CCCCCCCCCCCCCCCCCC(CO)NCC (centres undefined) | 135 µM | 23 | 23.6 µM | 16 µM (≈ 5.24 µg/mL) | 32 µM (≈ 10.5 µg/mL) | 512 µM (≈ 168 µg/mL) | 64 µM (≈ 21 µg/mL) | 192 µM |  |  | 
CCCCCCCCCCCCCCCCCC(COCc1ccccc1)NCCCCCC (centres undefined) | 118 µM | 6 | 120 µM | 64 µM (≈ 30.3 µg/mL) | > 512 µM | > 512 µM | > 512 µM |  |  |  | 
CCCCCCCCCCCCCCCCCC(N)COCc1ccccc1 (centres undefined) | 93.3 µM | 6 | 138 µM | 64 µM (≈ 24.9 µg/mL) | > 512 µM | > 512 µM | > 512 µM |  |  |  | 
CCCCCCCCCCCCCCCCCCCC(CNCC)NC(=O)OC(C)(C)C (centres undefined) | 4.7 µM | 90 | 33.7 µM | 4 µM (≈ 1.82 µg/mL) | 256 µM (≈ 116 µg/mL) | > 512 µM | 16 µM (≈ 7.28 µg/mL) | 158 µM |  |  | 
CCCCCCCCCCCCCCCC(COCc1ccccc1)NCC (centres undefined) | 21.6 µM | 23 | 26 µM | 16 µM (≈ 6.23 µg/mL) | 16 µM (≈ 6.23 µg/mL) | > 512 µM | 32 µM (≈ 12.5 µg/mL) | 237 µM |  |  | 
CCCCCCCCCCCCCCCC(N)CNCC (centres undefined) | 25.6 µM | 11 | 40.1 µM | 32 µM (≈ 9.55 µg/mL) |  |  |  |  |  |  | 
CCCCc1ccc(CCCCCCCCCC(N)CO)cc1 (centres undefined) | 11.7 µM | 45 | 25.4 µM | 8 µM (≈ 2.56 µg/mL) |  |  |  | 45.6 µM |  |  | 
C[C@H]1COc2c(N3CCN(C)CC3)c(F)cc3c(=O)c(C(=O)O)cn1c23 [LEVOFLOXACIN ANHYDROUS] |  |  |  | 0.35 µM and 0.13 µg/mL |  |  |  |  | 0.5 | 0.5 | 0.031
CCCCCCCCCCCC(N)CO (centres undefined) | 2.35 µM | 6 | 40.8 µM | 64 µM (≈ 13.8 µg/mL) |  |  |  |  |  |  | 
CCCCCCCCCCCCCCCCCC(CO)N(CC)CC (centres undefined) | 49.5 µM | <5.6 | 85.5 µM | > 64 µM | > 512 µM | > 512 µM | > 512 µM |  |  |  | 
CCCCCCCCCCCCCCCC(CO)N(CC)CC (centres undefined) | 23.3 µM | 90 | 25.1 µM | 4 µM (≈ 1.31 µg/mL) |  |  |  |  |  |  | 
CCCCc1ccc(CCCCCCCC(N)CO)cc1 (centres undefined) | 10.6 µM | 90 | 21.2 µM | 4 µM (≈ 1.17 µg/mL) |  |  |  | 25.4 µM |  |  | 
